The results in this text go back to patent publication US10351500B2, “Method of using of dihydro-resveratrol or its stilbenoid derivatives and/or chemical variants as antimicrobial agents” (Hong Kong Baptist University, priority 2015, dated 2019).

Series [1] deals with A375 human melanoma cells. Briefly: cell migration assay, A375. Type of series: cell-based. The note with it: A375, 25 μM, 24-h treatment.
In series [2] the test system is Streptococcus sobrinus. Briefly: anti-bacterial growth inhibition, S. sobrinus. The note with it: Streptococcus sobrinus, 10 h. Type of series: cell-based.
The test system of series [3] is pancreatic acinar cells. The format is cell-based. The note with it: rat, 24 h. As for the experimental part: Functional intact acini were dissociated from pancreatic tissue using collagenase digestion with mild shearing forces. Acini were cultured in Dulbecco's modification of Eagle's medium (GIBCO) supplemented with 5% fetal bovine serum (GIBCO), 1% penicillin-streptomycin (GIBCO) in a 5% CO2, 95% air humidified atmosphere at 37° C. […] MTT reagent was added to the cells at the end of the 24-hour treatment period. After a 3-hour reaction time, MTT products were dissolved in DMSO and absorbance at 570 nm was taken.

Series [4] has as its system cerulein-induced acute pancreatitis and associated pulmonary injury. Briefly: cerulein-induced acute pancreatitis in rats, oral dihydro-resveratrol. The format is in vivo, Sprague-Dawley rats. From the text:
Among the several established animal models, repetitive intraperitoneal (i.p.) injection of cholecystokinin secretagogue, cerulein, is the most widely used and a highly reproducible method for the production of an experimental acute pancreatitis. Followed by a single shot of lipopolysaccharide (LPS), pulmonary injury characterized by neutrophil sequestration in the lung tissues and increased permeability of the alveolar membrane barrier is often observed as an acute pancreatitis associated complication. For the diagnosis of the onset of acute pancreatitis, bulky leakage of digestive enzymes, namely α-amylase, into the bloodstream is regarded as the principal pathological parameter. For evaluating the severity of acute pancreatitis and the associated pulmonary injury, morphological alterations of organ architecture including interstitial edema, cellular damage, leukocyte infiltration and hemorrhage are characterized as the histological and/or pathological parameters. Besides histological examination, aberrant MPO activity is often measured for assessing the severity of neutrophil-mediated inflammatory condition. Both the local and systemic inflammatory responses can be further confirmed by the high levels of pro-inflammatory cytokines present in the homogenates of affected tissues. Moreover, glutathione depletion, a defense mechanism, is one of the most common parameters for assessing the severity of tissue injury.
Evaluation of biological activities. Sprague-Dawley rats aged 28 days weighing in the range of 70 to 90 g were randomly assigned into 6 groups of 6 to 8 individuals. The rats were housed with an ambient temperature of 23±2° C., a relative humidity of 60 to 80% and a 12-h light/dark cycle. Prior to the experiment, the rats were starved overnight but allowed with free access to water. Experimental acute pancreatitis was induced in the rats by six hourly i.p. injections of cerulein at the supramaximally stimulating dose (50 μg/kg) followed by a single dose of LPS at 7.5 mg/kg 1 h after the last cerulein injection, and this group of rats was designated as the cerulein group. The control group received injections of 0.9% saline instead of cerulein in the same volume and at same time intervals. The treatment groups given with cerulein and oral doses of dihydro-resveratrol (10, 20 or 50 mg/kg) were designated as Cerulein+D-res 10 or 20 or 50 mg/kg. The therapeutic intervention was given 30 minutes after the first cerulein injection for three consecutive hours. Upon scarification, pancreata were immediately removed, weighed, trimmed from fat and fixed in 4% paraformaldehyde-phosphate buffered saline overnight at 4° C. Samples were then processed, embedded in paraffin wax, sectioned and subjected to H&E staining. Levels of TNF-α in pancreatic and pulmonary samples were determined using commercial ELISA kits. Tissue homogenates were subjected to biochemical assays for the evaluation of MPO activity and glutathione content.

The test system of series [5] is LTC-14 cells (pancreatic stellate cells). The series is described as follows: Western blotting of α-SMA and FN1 in TGF-β-challenged LTC-14 PSCs. The format is cell-based, rat. Here is the method:
LTC-14 cells were cultured at 37° C. under a humidified condition of 95% air and 5% CO2 in IMDM supplemented with 10% fetal bovine serum (FBS). Cells used in all the experiment were among passages 9 to 25. LTC-14 cells were seeded at a density of 1×10^5/well in a 12-well plate, and incubated with recombinant TGF-β at 5 ng/mL with dihydro-resveratrol at 0, 1, 5, 10 and 20 μg/mL in IMDM supplemented with 0.2% FBS for 24 hours. Cells were then harvested for protein extraction and Western blotting analysis or immunofluorescent staining.
Total proteins of the LTC-14 cells are extracted using RIPA lysis buffers containing protease inhibitors. Cell lysates were loaded and separated by SDS-polyacrylaminde gel electrophoresis. After wet electroblotting, proteins were transferred onto PVDF membranes (Bio-rad), blocked with 5% non-fat milk, probed with antibodies and visualized by utilization of an ECL kit (GE Healthcare).
Control was not treated with Resv or any stilbenoids. Total proteins were extracted and analyzed using Western blotting.
Total proteins were extracted and analyzed using Western blotting.
A general note: A western blot detects proteins with antibodies after separation by electrophoresis.

The test system of series [6] is Streptococcus mutans. The series is described as follows: anti-bacterial growth inhibition, S. mutans. The format is cell-based. The note with it: Streptococcus mutans, 10 h.
Setting [7] is: read-out: Inhibition rate (25 μM).
[8] abbreviates: read-out: Inhibition rate (50 μM).
Setting [9] is: read-out: Inhibition rate (100 μM).

With `Oc1ccc(CCc2cc(O)cc(O)c2)cc1` [Dihydro-resveratrol, trans-3,5,4′-trihydroxybibenzyl], in series [1], the migratory ability result is on record as “significant reduction in the migratory ability”. For the same compound, the inhibition – broadly, the relative decrease from the control value, in per cent – at 25 µM in series [2] (setting [7]) is 10.7%; in series [6] (setting [7]), 6.32%. For the same compound, the inhibition at 50 µM came out at 8.18% in series [2] (setting [8]) and 2.34% in series [6] (setting [8]). The inhibition at 100 µM is 1.49% in series [2] (setting [9]) and 2.09% in series [6] (setting [9]). Besides, the “cytotoxicity (MTT, mitochondrial metabolic rates)” value in series [3] is reported as “approximately 500 μM”. Also, the “Plasma α-amylase activities (mean)” value is given as 0.2891 U/μl/minute in series [4] (Cerulein + D-Res 10 mg (oral 10 mg/kg)); 0.2498# U/μl/minute in series [4] (Cerulein + D-Res 20 mg (oral 20 mg/kg), #p<0.05 vs cerulein group); 0.2431# U/μl/minute in series [4] (Cerulein + D-Res 50 mg (oral 50 mg/kg), #p<0.05 vs cerulein group). Moreover, in series [4] (oral), the “MPO activities in pancreatic and pulmonary tissues” value is recorded as “significantly reduced”. The “ameliorative effect on reducing pancreatic edema compared with trans-resveratrol” value in series [4] (oral) was “more promising than that of trans-resveratrol”. Besides, the “glutathione level in cerulein-induced pancreata” value in series [4] (oral) is recorded as “significantly suppressed glutathione depletion”. Further, in series [4] (oral, ELISA), the “levels of TNF-α in pancreatic and pulmonary tissues” value is reported as “significantly reduced”. In addition, the “focal expansion of interlobular septae, cytoplasmic shrinkage and leukocyte infiltration in pancreatic parenchyma” value in series [4] (oral, H&E) is “remarkably reduced”. Besides, the “pulmonary wall thickening and hemorrhage in lung tissues” value in series [4] (oral, H&E) is “significantly improved”. Further, the “pancreatic edema (weight ratio of pancreas to body)” value in series [4] (oral, not less than 20 mg/kg) was “notably reduced the pancreatic edema”. The “expression levels of α-SMA and FN1” value in series [5] (rat PSCs upon challenge of TGF-β) is reported as “significantly attenuate”. The “anti-fibrotic effect in PSCs among the testing stilbenoids” value in series [5] (rat PSCs, TGF-β) was “most potent anti-fibrotic effect”.
